# Laboratory results from patent US4533553A, “Polycyclic ether antibiotic” (priority 1983, dated 1985).
# Structures can show the parent of a compound that is named as a salt.
# Experiments:
# rumen fluid = assay: in vitro rumen technique, propionic acid production; set-up: species or system cow; conditions: 5 μg./ml.; comparison with Salinomycin
# Protocol: The value of animal feeds generally has been determined directly by feeding the animal. British Patent Specification No. 1,197,826 details an in vitro rumen technique whereby the changes occurring in feeds brought about by microorganisms are measured more readily and with great accuracy in the evaluation of animal feeds. This technique involves the use of an apparatus in which the digestive processes of the animals are conducted and studied in vitro. The animal feeds, rumen inoculum and various growth promotants are introduced into and withdrawn from a laboratory unit under carefully controlled conditions and the changes taken place are studied critically and progressively during the consumption of the feed by the microorganisms. […] The change in propionic acid content is expressed as percent of the propionic acid content found in the control rumen fluid. Long term in vivo feeding studies are used to show a reliable correlation between propionic acid increase in the rumen fluid and improved animal performance.
# Rumen fluid is collected from a fistulated cow which is fed on a commercial fattening ration plus hay. The rumen fluid is immediately filtered through cheese cloth, and 10 ml added to a 50 ml conical flask containing 400 mg. of standard substrate (68% corn starch+17% cellulose+15% extracted soybean meal), 10 ml. of a pH 6.8 buffer and the test compound. The flasks are gassed with oxygen free nitrogen for about two minutes, and incubated in a shaking water bath at 39° C. for about 16 hours. All tests are conducted in triplicate.
# After incubation, 5 ml. of the sample is mixed with 1 ml. of 25% metaphosphoric acid. After 10 minutes 0.25 ml. of formic acid is added and the mixture centrifuged at 1,500 r.p.m. for 10 minutes. Samples are then analyzed by gas-liquid chromatograhy by the method of D. W. Kellog, J. Dairy Science, 52, 1690 (1969). Peak heights for acetic, propionic and butyric acids are determined for samples from untreated and treated incubation flasks.
# Bacillus subtilis = assay: in vitro MIC test; format: cell-based; conditions: strain 06A001, 24 hours
# Protocol: (§1) In Table I, below, the results of in vitro MIC tests are summarized. For this test each organism is inoculated in a series of test tubes containing nutrient medium and varying concentrations of Compound 53,607 to determine the minimal concentration of the antibiotic in mcg/ml which inhibits the growth of the organism over a period of 24 hours (MIC).
# Bacteroides fragilis = assay: in vitro MIC test; format: cell-based; conditions: 24 h
# Protocol: as §1
# Bacteroides vulgatis = assay: in vitro MIC test; format: cell-based; conditions: strain 78E032, 24 hours
# Protocol: as §1
# Corynebacterium pyogenes = assay: in vitro MIC test; format: cell-based; conditions: Rhodococcus (subgen. Prescottella) equi; strain 11D001, 24 hours
# Protocol: as §1
# [1] = test system: Fusobacterium necrophorum; assay: in vitro MIC test; format: cell-based; conditions: strain 84C004, 24 hours
# Protocol: as §1
# Haemophilus influenza = assay: in vitro MIC test; format: cell-based; conditions: 24 h
# Protocol: as §1
# Neisseria sicca = assay: in vitro MIC test; format: cell-based; conditions: strain 66C000, 24 hours
# Protocol: as §1
# Pasteurella multocida = assay: in vitro MIC test; format: cell-based; conditions: strain 59A001, 24 hours
# Protocol: as §1
# Staphylococcus aureus = assay: in vitro MIC test; format: cell-based; conditions: 24 h
# Protocol: as §1
# [2] = test system: Staphylococcus epidermidis; assay: in vitro MIC test; format: cell-based; conditions: 24 h
# Protocol: as §1
# Streptococcus faecalis = assay: in vitro MIC test; format: cell-based; conditions: Enterococcus faecalis; strain 02A006, 24 hours
# Protocol: as §1
# Streptococcus pyogenes = assay: in vitro MIC test; format: cell-based; conditions: 24 h
# Protocol: as §1
# Treponema hyodysenteriae = assay: in vitro MIC test; format: cell-based; conditions: Brachyspira hyodysenteriae, 24 h
# Protocol: as §1
# Clostridium perfringens = assay: microbe, parasite or virus in culture; format: cell-based
smiles,measurement,setting,value
"CC[C@@H](C(=O)[C@@H](C)[C@@H](O)[C@H](C)[C@@H]1O[C@@H]([C@@H](CC)C(=O)O)CC[C@@H]1C)[C@H]1O[C@]2(C=C[C@@H](O)[C@]3(CC[C@@](C)([C@H]4CC[C@](O)(CC)[C@H](C)O4)O3)O2)[C@H](C)C[C@@H]1C [Salinomycin, reference compound]",increase in propionic acid,rumen fluid,about 52%
"CC(=CC(C)C1OC2(CCC(C)(C3CCC(C)C4(OC(C5OC(O)(CO)C(C)CC5C)CC4C)O3)O2)CC(O)C1C)C(=O)C(C)CC(C)C(=O)O (centres unmarked) [53,607 (sodium salt)]",MIC,Bacillus subtilis,0.39 µg/mL
same,MIC,"Bacteroides fragilis; strain 78C004, 24 hours",12.5 µg/mL
same,MIC,"Bacteroides fragilis; strain 78C009, 24 hours",6.25 µg/mL
same,MIC,"Bacteroides fragilis; strain 78C010, 24 hours",6.25 µg/mL
same,MIC,Bacteroides vulgatis,3.12 µg/mL
same,MIC,Corynebacterium pyogenes,25 µg/mL
same,MIC,[1],3.12 µg/mL
same,MIC,"Haemophilus influenza; strain 54A036, 24 hours",6.25 µg/mL
same,MIC,"Haemophilus influenza; strain 54A037, 24 hours",3.12 µg/mL
same,MIC,"Haemophilus influenza; strain 54A059, 24 hours",12.5 µg/mL
same,MIC,Neisseria sicca,25 µg/mL
same,MIC,Pasteurella multocida,> 200 µg/mL
same,MIC,"Staphylococcus aureus; strain 01A005, 24 hours",0.78 µg/mL
same,MIC,"Staphylococcus aureus; strain 01A052, 24 hours",0.78 µg/mL
same,MIC,"Staphylococcus aureus; strain 01A110, 24 hours",1.56 µg/mL
same,MIC,"Staphylococcus aureus; strain 01A400, 24 hours",1.56 µg/mL
same,MIC,[2]; strain 01B087R,0.78 µg/mL
same,MIC,[2]; strain 01B111RR,0.78 µg/mL
same,MIC,"[2]; strain 01B126, 24 hours",1.56 µg/mL
same,MIC,Streptococcus faecalis,1.56 µg/mL
same,MIC,Streptococcus pyogenes,< 0.01 µg/mL
same,MIC,"Treponema hyodysenteriae; strain 94A001, 24 hours",0.39 µg/mL
same,MIC,"Treponema hyodysenteriae; strain 94A002, 24 hours",0.098 µg/mL
same,MIC,"Clostridium perfringens; Clostridium perfringens, 24 h",0.98 µg/mL
same,MIC,"Clostridium perfringens; strain 10A003, 24 hours",0.98 µg/mL
